{
  "source": "patent US8741949B2",
  "about": "“Inhibitors of carnitin-palmitoyl-tranferase-1 for the treatment and prevention of disorders caused by delipidation of neural tissue” (Meta-IQ ApS, priority 2008, dated 2014)",
  "type_in_all_cases": "in vivo, rat",
  "key": {"Male Wistar rats [1]": {"tested_on": "Male Wistar rats", "assay": "Y-maze short term memory test (spontaneous alternation), MK-801 induced memory loss", "experimental": "(§1) Male Wistar rats were purchased from Taconic, Denmark. Animal weight was close to 300 g. The animals were singly housed. Food and water was available ad libitum.\nSpontaneous alternation. A Y-maze was used to assess (without food deprivation or other aversive procedures) the normal navigation behaviors of rodents. All arm entries are sequentially scored so that the total number of arm entries, as well as the sequence of entries, are recorded. Data are analyzed to determine the number of arm entries without repetition.\nOn the day of testing, the rats are given subcutaneous injection of either vehicle (n=9), 0.1 mg/kg MK-801 (n=8) or 0.1 mg/kg MK-801 (also known as Dizocilpine) and the CPT-1 inhibitor Etomoxir 1 mg/kg (1 mg/ml etomoxir ester dilution in olive oil, n=5) 1 hour before the testing (to avoid the MK-801 induced hyperactivity)."}, "Male Wistar rats [2]": {"tested_on": "Male Wistar rats", "assay": "Passive avoidance test (long term memory), MK-801 induced memory loss", "conditions": "retention test 24 h later", "excerpt": "as §1\nIn order to test long term memory, a passive avoidance apparatus was used. The passive avoidance apparatus consist of 2 compartments: a white compartment and a black compartment, which are separated by guillotine doors. There is a lamp hanging 10 cm above the white compartment and there is a lid covering the black compartment. The black compartment contains a stainless steel grid floor.\nThe test was performed in the lab where the rats normally live, and all the rats were present in the room all the time during the experiment. The apparatus was placed a little bit above the floor on 2 cages. The electrical current strength was adjusted to 0.36 mA and the duration was 5 sec. […] All the rats are weighted one day before the experiment, the concentration of MK-801 per mean body weight is calculated and the dilutions are prepared\nThe rats are given subcutaneous injection of either vehicle (n=4), 0.1 mg/kg MK-801 (n=8) or 0.1 mg/kg MK-801 and etomoxir 1 mg/kg (1 mg/ml etomoxir ester dilution in olive oil, n=10) 1 hour before the training (to avoid the MK-801 induced hyperactivity). […] After 20 sec the doors are lifted and the time to enter the black compartment is measured. […]"}, "Male Wistar rats [3]": {"tested_on": "Male Wistar rats", "assay": "Chronic mild stress (CMS) model of depression, sucrose consumption test", "conditions": "4 mg/kg etomoxir in oil i.p. daily", "excerpt": "For a prolonged period rats are submitted to a succession of mild stressors. Consequently rats enter a depression-like state (anhedoina), however, upon concomitant treatment with antidepressants a fraction of rats recovers over time (Jayatissa et al., 2006). Time point of onset of antidepressant action correlates well to therapeutic action in the clinic and also drug efficacy, measured as a reduction in number of rats resistant to drug treatment, is addressed in the model. Male Wistar rats were purchased from Taconic, Denmark. Animal weight was close to 200 g when adaptation for sucrose consumption was initiated, and approximately 350 g at the start of stress regime. The animals were singly housed, except when grouping was applied as a stress parameter. Food and water was available ad libitum except when food or/and water deprivation was applied as a stress parameter. The standard 12-h light/dark cycle was only changed in course of stress regime. The animals were first trained to consume a palatable sucrose solution (1.5%). The training lasted 5 weeks. In this period the sucrose test was made twice a week during the first 3 weeks and once a week during the last two weeks. […] Percentage well being is calculated as follows: Test=Average Sucrose consumption animals in test group Control=Average Sucrose used animal control group Percentage well being=(Test/control)×100%"}},
  "data": [
    {"smiles": "C[C@]12N[C@H](Cc3ccccc31)c1ccccc12", "note": "[MK-801]", "values": [
      {"measurement": "highest Y-maze score in the group", "setting": "Male Wistar rats [1]; 0.1 mg/kg MK-801 + vehicle s.c., 1 hour before testing, n=8", "value": 66, "unit": "%"},
      {"measurement": "animals with measurable long term memory", "setting": "Male Wistar rats [2]; 0.1 mg/kg MK-801 s.c. 1 hour before training, n=8", "value": "None"}
    ]},
    {"smiles": "CCOC(=O)C1(CCCCCCOc2ccc(Cl)cc2)CO1", "note": "(centres unmarked) [Etomoxir, 2-(6-(4-chlorophenoxy)hexyl)oxirane-2-carboxylic acid ethyl ester]", "values": [
      {"measurement": "Y-maze scores of the animals with nearly perfect memory", "setting": "Male Wistar rats [1]; Etomoxir 1 mg/kg s.c. with 0.1 mg/kg MK-801, 1 hour before testing", "value": "92-100%"},
      {"measurement": "animals with nearly perfect memory", "setting": "Male Wistar rats [1]; Etomoxir 1 mg/kg s.c. with 0.1 mg/kg MK-801, 1 hour before testing, n=5", "value": "Sixty"},
      {"measurement": "effect on the induced loss of short term memory", "setting": "Male Wistar rats [1]; one subcutaneous injection, Etomoxir 1 mg/kg with 0.1 mg/kg MK-801, 1 hour before testing, FIG. 2", "value": "restore the loss of short term memory"},
      {"measurement": "animals responding to the treatment (at least 90% of pre-stress sucrose consumption)", "setting": "Male Wistar rats [3]; stressed rats n=20, FIG. 6", "value": "about 70%"},
      {"measurement": "time of treatment until animals responded like normal non-depressed animals (percentage well being, sucrose consumption)", "setting": "Male Wistar rats [3]; stressed rats, earliest time point measured, FIG. 5", "value": "≤ 1", "unit": "week"},
      {"measurement": "animals with restored long term memory", "setting": "Male Wistar rats [2]; one subcutaneous injection, etomoxir 1 mg/kg with 0.1 mg/kg MK-801, 1 hour before training, n=10, FIG. 3", "value": 40, "unit": "%"}
    ]}
  ]
}
